Data taken from PubChem BioAssay (NCI).
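Values below derive from 48-hour exposures of cells grown in 96-well plates, with endpoints linearly interpolated between the two concentrations bracketing the appropriate inhibition level. GI50 = concentration required for 50% inhibition of growth. At the TGI there is no net growth.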

Assays:
Assay in all cases: NCI tumour cell line growth inhibition, 48 h
[1] = test system: 786-0 renal
[2] = test system: A498 renal
[3] = test system: A549 NSCLC
[4] = test system: ACHN renal
[5] = test system: BT-549 breast
[6] = test system: CAKI-1 renal
[7] = test system: CCRF-CEM leukemia
[8] = test system: COLO 205 colon
[9] = test system: DU-145 prostate
[10] = test system: EKVX NSCLC
[11] = test system: HCC-2998 colon
[12] = test system: HCT-116 colon
[13] = test system: HCT-15 colon
[14] = test system: HL-60(TB) leukemia
[15] = test system: HOP-62 NSCLC
[16] = test system: HOP-92 NSCLC
[17] = test system: HS 578T breast
[18] = test system: HT29 colon
[19] = test system: IGROV1 ovarian
[20] = test system: K-562 leukemia
[21] = test system: KM12 colon
[22] = test system: LOX IMVI melanoma
[23] = test system: M14 melanoma
[24] = test system: MALME-3M melanoma
[25] = test system: MCF7 breast
[26] = test system: MDA-MB-231 breast
[27] = test system: MDA-MB-435
[28] = test system: MOLT-4 leukemia
[29] = test system: NCI-H226 lung
[30] = test system: NCI-H23 lung
[31] = test system: NCI-H460 lung
[32] = test system: NCI-H522 lung
[33] = test system: NCI/ADR-RES ovarian
[34] = test system: OVCAR-3 ovarian
[35] = test system: OVCAR-4 ovarian
[36] = test system: OVCAR-5 ovarian
[37] = test system: OVCAR-8 ovarian
[38] = test system: PC-3 prostate
[39] = test system: RPMI-8226 leukemia
[40] = test system: RXF 393 renal
[41] = test system: SF-268 CNS
[42] = test system: SF-295 CNS
[43] = test system: SF-539 CNS
[44] = test system: SK-MEL-2 melanoma
[45] = test system: SK-MEL-28 melanoma
[46] = test system: SK-MEL-5 melanoma
[47] = test system: SK-OV-3 ovarian
[48] = test system: SN12C renal
[49] = test system: SNB-19 CNS
[50] = test system: SNB-75 CNS
[51] = test system: SR leukemia
[52] = test system: SW-620 colon
[53] = test system: T-47D breast
[54] = test system: TK-10 renal
[55] = test system: U251 CNS
[56] = test system: UACC-257 melanoma
[57] = test system: UACC-62 melanoma
[58] = test system: UO-31 renal

## C=CC(=O)Nc1cc(Nc2ncc(C(=O)OC(C)C)c(-c3cn(C)c4ccccc34)n2)c(OC)cc1N(C)CCN(C)C
[1]
  GI50: 3.15 µM
  TGI: 12.9 µM
[2]
  GI50: 0.483 µM
  TGI: 7.63 µM
[3]
  GI50: 2.89 µM
  TGI: 21.5 µM
[4]
  GI50: 0.0218 µM
  TGI: 12.1 µM
[5]
  GI50: 7.41 µM
  TGI: 21.4 µM
[6]
  GI50: 1.32 µM
  TGI: 9.32 µM
[7]
  GI50: 3.18 µM
  TGI: 17.8 µM
[8]
  GI50: 3.2 µM
  TGI: > 22.2 µM
[9]
  GI50: 1.19 µM
  TGI: 17.6 µM
[10]
  GI50: 0.0181 µM
  TGI: 13.6 µM
[11]
  GI50: 2.3 µM
  TGI: 7.75 µM
[12]
  GI50: 3.46 µM
  TGI: 20 µM
[13]
  GI50: 1.79 µM
  TGI: 5.05 µM
[14]
  GI50: 1.47 µM
  TGI: 3.7 µM
[15]
  GI50: 7.13 µM
  TGI: 22.8 µM
[16]
  GI50: 2.02 µM
  TGI: 10.1 µM
[17]
  GI50: 6.43 µM
  TGI: 21.5 µM
[18]
  GI50: 2.32 µM
  TGI: 5.99 µM
[19]
  GI50: 0.399 µM
  TGI: 3.12 µM
[20]
  GI50: 2.22 µM
  TGI: > 23.4 µM
[21]
  GI50: 5.85 µM
  TGI: 13.9 µM
[22]
  GI50: 1.76 µM
  TGI: 3.53 µM
[23]
  GI50: 1.87 µM
  TGI: 3.74 µM
[24]
  GI50: 1.69 µM
  TGI: 3.24 µM
[25]
  GI50: 2.12 µM
  TGI: 7.62 µM
[26]
  GI50: 2.66 µM
  TGI: 8.26 µM
[27]
  GI50: 3 µM
  TGI: 7.6 µM
[28]
  GI50: 2.9 µM
  TGI: 11.4 µM
[29]
  GI50: 7.45 µM
  TGI: 29.5 µM
[30]
  GI50: 9.02 µM
  TGI: 25.3 µM
[31]
  GI50: 6.57 µM
  TGI: 14.8 µM
[32]
  GI50: 0.02 µM
  TGI: 5.74 µM
[33]
  GI50: 2.3 µM
  TGI: 17.7 µM
[34]
  GI50: 2.58 µM
  TGI: 12.3 µM
[35]
  GI50: 4.97 µM
  TGI: 21.3 µM
[36]
  GI50: 2.72 µM
  TGI: 18.1 µM
[37]
  GI50: 4.85 µM
  TGI: 25 µM
[38]
  GI50: 3.19 µM
  TGI: 9.54 µM
[39]
  GI50: 2.86 µM
  TGI: 14.6 µM
[40]
  GI50: 1.86 µM
  TGI: 6.62 µM
[41]
  GI50: 6.88 µM
  TGI: 24.1 µM
[42]
  GI50: 5.11 µM
  TGI: 10.6 µM
[43]
  GI50: 3.1 µM
  TGI: 9.45 µM
[44]
  GI50: 4.3 µM
  TGI: 11 µM
[45]
  GI50: 2.43 µM
  TGI: 6.55 µM
[46]
  GI50: 1.78 µM
  TGI: 3.21 µM
[47]
  GI50: < 0.01 µM
  TGI: 16.7 µM
[48]
  GI50: 3.02 µM
  TGI: 15.4 µM
[49]
  GI50: 6.8 µM
  TGI: 22.4 µM
[50]
  GI50: 1.93 µM
  TGI: 10.3 µM
[51]
  GI50: 3.04 µM
  TGI: > 33.7 µM
[52]
  GI50: 3.25 µM
  TGI: 8.88 µM
[53]
  GI50: 396 nM
  TGI: 14 µM
[54]
  GI50: < 0.01 µM
  TGI: 5.19 µM
[55]
  GI50: 3.98 µM
  TGI: 12.2 µM
[56]
  GI50: 1.8 µM
  TGI: 3.71 µM
[57]
  GI50: 2.34 µM
  TGI: 7 µM
[58]
  GI50: 0.442 µM
  TGI: 12.9 µM

## C=C(C)C(OC)C(O)CC1(C)CC(O)CC(C)(C2CCC3OC(C4(C)CCC(Br)C(C)(C)O4)CCC3(C)O2)O1 (configuration not stated)
[1]
  GI50: 17.8 µM
  TGI: 33.6 µM
[2]
  GI50: 16.5 µM
  TGI: 31.1 µM
[3]
  GI50: 21 µM
  TGI: > 58 µM
[4]
  GI50: 26.4 µM
  TGI: > 57.4 µM
[5]
  GI50: 19.9 µM
  TGI: 38.4 µM
[6]
  GI50: 18.1 µM
  TGI: 38.3 µM
[7]
  GI50: 21.3 µM
  TGI: 55.8 µM
[8]
  GI50: 21.7 µM
  TGI: 45.5 µM
[9]
  GI50: 17.3 µM
  TGI: 32 µM
[10]
  GI50: 14.1 µM
  TGI: 34.1 µM
[11]
  GI50: 14.8 µM
  TGI: 30.1 µM
[12]
  GI50: 20.6 µM
  TGI: 51.7 µM
[13]
  GI50: 26.2 µM
  TGI: > 68 µM
[14]
  GI50: 17.1 µM
  TGI: > 56.7 µM
[15]
  GI50: 17.4 µM
  TGI: 32.6 µM
[16]
  GI50: 15.8 µM
  TGI: 34 µM
[17]
  GI50: 23.9 µM
  TGI: 52.9 µM
[18]
  GI50: 30.3 µM
  TGI: > 78.9 µM
[19]
  GI50: 24 µM
  TGI: > 57.1 µM
[20]
  GI50: 20.7 µM
  TGI: > 68.5 µM
[21]
  GI50: 17.5 µM
  TGI: 36.7 µM
[22]
  GI50: 26.1 µM
  TGI: > 58.9 µM
[23]
  GI50: 17.4 µM
  TGI: 32.7 µM
[24]
  GI50: 14.9 µM
  TGI: 32.5 µM
[25]
  GI50: 19.9 µM
  TGI: 42.3 µM
[26]
  GI50: 20.3 µM
  TGI: 43.8 µM
[27]
  GI50: 19.8 µM
  TGI: 46.3 µM
[28]
  GI50: 13.5 µM
  TGI: 29.4 µM
[29]
  GI50: 18.8 µM
  TGI: 41.2 µM
[30]
  GI50: 16 µM
  TGI: 34.6 µM
[31]
  GI50: 17.7 µM
  TGI: 39.3 µM
[32]
  GI50: 18.2 µM
  TGI: 55.8 µM
[33]
  GI50: 18.3 µM
  TGI: 39.6 µM
[34]
  GI50: 22.8 µM
  TGI: 58.5 µM
[35]
  GI50: 23.1 µM
  TGI: 44.2 µM
[36]
  GI50: 20.5 µM
  TGI: 38.7 µM
[37]
  GI50: 21.1 µM
  TGI: 50.2 µM
[38]
  GI50: 15.4 µM
  TGI: 32.4 µM
[39]
  GI50: 12.7 µM
  TGI: 38.1 µM
[40]
  GI50: 18.3 µM
  TGI: 40.4 µM
[41]
  GI50: 18.9 µM
  TGI: 40.3 µM
[42]
  GI50: 22.7 µM
  TGI: 62.2 µM
[43]
  GI50: 18.9 µM
  TGI: 36.5 µM
[44]
  GI50: 18.1 µM
  TGI: 36.5 µM
[45]
  GI50: 23.6 µM
  TGI: 50 µM
[46]
  GI50: 13.2 µM
  TGI: 28.4 µM
[47]
  GI50: 22.8 µM
  TGI: 54.3 µM
[48]
  GI50: 18.3 µM
  TGI: 39.4 µM
[49]
  GI50: 3.28 µM
  TGI: 39 µM
[50]
  GI50: 27.4 µM
  TGI: > 61.5 µM
[51]
  GI50: 34.9 µM
  TGI: > 100 µM
[52]
  GI50: 21 µM
  TGI: 45.4 µM
[53]
  GI50: 2270 nM
  TGI: 22.2 µM
[54]
  GI50: 16 µM
  TGI: 33.5 µM
[55]
  GI50: 25.5 µM
  TGI: > 61.9 µM
[56]
  GI50: 20.2 µM
  TGI: 43 µM
[57]
  GI50: 19 µM
  TGI: 39.5 µM
[58]
  GI50: 15.7 µM
  TGI: 34.4 µM
